Results as given in publication PMC4648260 (Chembiochem : a European journal of chemical biology, 2015).

How the values were obtained:
RhlR [1] = target: T1, RhlR (Pseudomonas aeruginosa, UniProt P54292); format: cell-based; conditions: E. coli reporter; for Inhibition (%) / % RhlR inhibition: compound at 100 μM in the presence of 10 μM BHL, untreated culture set to 100%, error ±10%, selected data reproduced from ref. [23]
LasR = LasR (Pseudomonas aeruginosa, UniProt P25084); test: LasR antagonism; format: cell-based; conditions: compound at 100 μM against 2 nM OdDHL; untreated culture set to 100%; negative values indicate receptor agonism; error ±10%
Sequence of LasR (P25084 whole entry): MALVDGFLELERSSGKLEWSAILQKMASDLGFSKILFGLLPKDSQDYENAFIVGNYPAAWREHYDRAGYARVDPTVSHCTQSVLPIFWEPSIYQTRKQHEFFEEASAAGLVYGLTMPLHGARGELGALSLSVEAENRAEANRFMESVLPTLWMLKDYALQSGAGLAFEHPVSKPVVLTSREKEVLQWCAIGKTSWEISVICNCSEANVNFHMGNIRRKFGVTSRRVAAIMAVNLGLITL

QscR = QscR (Pseudomonas aeruginosa, UniProt G3XD77); conditions: compound at 100 μM against 15 nM OdDHL; untreated culture set to 100%; error ±10%
RhlR [2] = target: T1, RhlR; format: cell-based; conditions: for RhlR-agonistic selectivity over LasR and QscR: criterion: at least 2.5-fold more active in RhlR agonism assays than in LasR and QscR agonism assays at 100 μM; for EC50: read-out: EC50 (RhlR agonism), E. coli reporter, dose-response 100 nM – 1 mM
RhlR [3] = target: T1, RhlR; test: RhlR agonism, P. aeruginosa GFP reporter strain PAO-JP2/prhlI-LVAgfp; format: cell-based; conditions: compound at 100 μM in the presence of 100 nM OdDHL, 900 μM BHL set to 100% activation, error ±10%, selected data reproduced from ref. [23]
RhlR [4] = target: T1, RhlR; test: RhlR antagonism; format: cell-based

T1 sequence (P54292 whole entry): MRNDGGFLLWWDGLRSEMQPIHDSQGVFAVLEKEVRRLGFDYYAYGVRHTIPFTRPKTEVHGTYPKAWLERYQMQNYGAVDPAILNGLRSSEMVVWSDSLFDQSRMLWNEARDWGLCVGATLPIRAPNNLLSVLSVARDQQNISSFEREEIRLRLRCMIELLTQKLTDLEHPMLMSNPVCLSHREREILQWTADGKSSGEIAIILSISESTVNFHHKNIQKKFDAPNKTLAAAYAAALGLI

| Compound | Inhibition (%) / % RhlR inhibition (RhlR [1]) [%] | % LasR inhibition (LasR) [%] | % QscR inhibition (QscR) [%] | RhlR-agonistic selectivity over LasR and QscR (RhlR [2]) | EC50 (RhlR [2]) [µM] | % RhlR activation (RhlR [3]) [%] | other results |
| --- | --- | --- | --- | --- | --- | --- | --- |
| O=C(Cc1ccc(I)cc1)N[C@H]1CCOC1=O [Compound C10] | 84 | 58 | −79 |  |  |  | Maximum RhlR inhibition (RhlR [1]; antagonism dose curves, highest concentrations tested): near complete RhlR inhibition |
| O=C(Cc1ccccc1)NC1CCOC1=O (stereo not drawn) [Compound C1] |  |  |  | displayed selectivity | 14.7 | 53 |  |
| O=C(Cc1ccccc1I)NC1CCOC1=O (stereo not drawn) [Compound C12] |  |  |  | displayed selectivity |  | 11 |  |
| O=C(Cc1cccc(Cl)c1)NC1CCOC1=O (stereo not drawn) [Compound C6] |  |  |  | displayed selectivity | 5.5 | 26 |  |
| O=C(Cc1ccccc1F)N[C@H]1CCOC1=O [Compound C4] |  |  |  | displayed selectivity |  | 24 |  |
| O=C(Cc1ccc2ccccc2c1)NC1CCOC1=O (stereo not drawn) [Compound E12] | 77 | 81 | 60 |  |  |  |  |
| O=C(CCc1ccccc1)NC1CCOC1=O (stereo not drawn) [Compound E30] |  |  |  |  | 6.6 |  |  |
| CSc1cccc(CC(=O)N[C@H]2CCOC2=O)c1 [Compound E7] |  |  |  |  | 6.6 |  |  |
| O=C(Cc1ccc(F)cc1)NC1CCOC1=O (stereo not drawn) [Compound C2] |  |  |  | displayed selectivity | 9 | 28 |  |
| O=C(COc1ccc(I)cc1)N[C@H]1CCOC1=O [Compound E22] | 74 | −9 | 18 |  |  |  | fold reduction in potency, P. aeruginosa vs E. coli (RhlR [4]; IC50 67.2 μM in P. aeruginosa vs 17.3 μM in E. coli): ~ 4 fold; % RhlR inhibition (RhlR [4]; P. aeruginosa reporter, compound at 100 μM against 30 μM BHL in the presence of 100 nM OdDHL, cells with 100 nM OdDHL alone set to 100% inhibition, error ±10%): 92% |
| O=C(Cc1ccccc1)N[C@@H]1CCOC1=O [Compound B4] | 66 | 15 | 37 |  |  |  |  |
| O=C(Cc1cccc(F)c1)NC1CCOC1=O (stereo not drawn) [Compound C3] |  |  |  | displayed selectivity |  | 28 |  |
| CCCC(=O)N[C@H]1CCOC1=O [BHL, N-butanoyl L-homoserine lactone, reference compound] |  |  |  |  | 11.1 |  |  |
